Results from patent publication US20080176932A1, “Pharmaceutical Compositions Containing Baicalein And Baicalin With Synergistic Effect In Tumor Treatment” (priority 2005, published 2008).
Like-named read-outs stand apart in the source and are kept apart here.

Experiments:
[1] = system: Human esophagus cancer cell line TE2
[2] = system: human liver cancer cell line HepG2; test: MTT growth inhibition, baicalein and baicalin single or combination; format: cell-based
Excerpt: The results of experiments with human liver cancer cell line HepG2 are illustrated in Table 1;

[3] = system: Human prostate cancer cell line PC3
[4] = system: Murine melanoma cell line B 16; test: Solid tumor transplant model, baicalein and baicalin; format: in vivo; settings: B16 mice, day 1-10; for Final Tumor WT. (g) Mean ± SD / Tumor Growth Inhibition %: day 15
Method: C57BL/6 female mice (weight approximately 20 g) were used in this study. Murine melanoma cell line B 16 cells, 2×10^6 tumor cells were implanted s.c. into the armpit of each mice after two passenges in vitro cultured. On the next day after implantation, mice were randomly grouped at 10 per group and received 0.1 ml/10 g weight of the drugs. […] The number of mice of each group was 10. Mice were weighed before and post the treatment. Animals were killed on day 15, and the tumors were removed and weighted.

[5] = system: Human hung cancer cell line A549; test: MTT growth inhibition, baicalein and baicalin single or combination; format: cell-based
Excerpt: Human hung cancer cell line A549—Table 3;

[6] = system: Human breast cancer cell line MCF-7
[7] = system: Human leukemia cell line HL60; test: MTT growth inhibition, baicalein and baicalin single or combination; format: cell-based
Excerpt: Human leukemia cell line HL60—Table 8.

[8] = system: Human gastric cancer cell line MKN28; test: as above; format: cell-based
Excerpt: Human gastric cancer cell line MKN28—Table 4;

[9] = system: Human colon cancer cell line HCT116; test: as above; format: cell-based
Excerpt: Human colon cancer cell line HCT116—Table 2;

L1210 cells = format: in vivo; settings: day 1-10; for ILS(%) increase of life span: L1210 mice
Method: L1210 cells on the growth phase were injected at 1×10^5 cells via I.P. into BDF1 female mice (weight approximately 20 g). The next day of implantation, mice were grouped, and received an injection of 0.1 ml/10 g weight of the drug. […] The number of mice of each group was 10. Mice were weighed before and after the treatment. Survival time of each mouse was recorded. The results of changes in increasing of life span of mice were used in assessment of response. The increase of life span was determined as; increase of life span rate=(median survival time of treated animals/median survival time of control animals−1)×100%, the data were analyzed by t-test.

Structure (SMILES): O=C(O)[C@H]1O[C@@H](Oc2cc3oc(-c4ccccc4)cc(=O)c3c(O)c2O)[C@H](O)[C@@H](O)[C@@H]1O [BG, baicalin]
- Inhibition of cell growth (%) ([1]; single dose 2.5 μm): 6.2 ± 1.8%
- Inhibition of cell growth (%) ([1]; single dose 10 μm): 28.2 ± 2.5%
- Inhibition of cell growth (%) ([1]; single dose 20 μm): 49.8 ± 1.78%
- Inhibition of cell growth (%) ([1]; single dose 40 μm): 72.7 ± 2.1%
- Inhibition of cell growth (%) ([2]; single dose 2.5 μm): 16.63 ± 2%
- Inhibition of cell growth (%) ([2]; single dose 5 μm): 16.8 ± 2%
- Inhibition of cell growth (%) ([2]; single dose 10 μm): 34.93 ± 3.8%
- Inhibition of cell growth (%) ([2]; single dose 20 μm): 50 ± 2.9%
- Inhibition of cell growth (%) ([2]; single dose 40 μm): 86.69 ± 3%
- Inhibition of cell growth (%) ([3]; single dose 2.5 μm): 1 ± 3%
- Inhibition of cell growth (%) ([3]; single dose 5 μm): 17.9 ± 5%
- Inhibition of cell growth (%) ([3]; single dose 10 μm): 47 ± 8%
- Inhibition of cell growth (%) ([3]; single dose 20 μm): 62 ± 7%
- Inhibition of cell growth (%) ([3]; single dose 40 μm): 88 ± 7%
- Final Tumor WT. (g) Mean ± SD ([4]; BG 25 mg/kg i.p.): 1.81 ± 0.1 g
- Tumor Growth Inhibition % ([4]; BG 25 mg/kg i.p.): 16.97%
- Final Tumor WT. (g) Mean ± SD ([4]; BG 50 mg/kg i.p.): 1.77 ± 0.117 g
- Tumor Growth Inhibition % ([4]; BG 50 mg/kg i.p.): 18.8%
- Final Tumor WT. (g) Mean ± SD ([4]; BG 100 mg/kg i.p.): 1.51 ± 0.11 g
- Tumor Growth Inhibition % ([4]; BG 100 mg/kg i.p.): 30.7%
- Final Tumor WT. (g) Mean ± SD ([4]; BG 200 mg/kg i.p.): 1.28 ± 0.07 g
- Tumor Growth Inhibition % ([4]; BG 200 mg/kg i.p.): 41.28%
- Weight Change % ([4]; BG 25 mg/kg i.p.): <5%
- Weight Change % ([4]; BG 50 mg/kg i.p.): <5%
- Weight Change % ([4]; BG 100 mg/kg i.p.): <5%
- Weight Change % ([4]; BG 200 mg/kg i.p.): <5%
- Inhibition of cell growth (%) ([5]; single dose 2.5 μm): 9.8 ± 2%
- Inhibition of cell growth (%) ([5]; single dose 5 μm): 17 ± 3%
- Inhibition of cell growth (%) ([5]; single dose 10 μm): 30.58 ± 3.2%
- Inhibition of cell growth (%) ([5]; single dose 20 μm): 53.58 ± 4%
- Inhibition of cell growth (%) ([5]; single dose 40 μm): 92 ± 3%
- Inhibition of cell growth (%) ([6]; single dose 2.5 μm): 0.5 ± 2.7%
- Inhibition of cell growth (%) ([6]; single dose 5 μm): 10.2 ± 1%
- Inhibition of cell growth (%) ([6]; single dose 10 μm): 48.02 ± 2%
- Inhibition of cell growth (%) ([6]; single dose 20 μm): 60.35 ± 3%
- Inhibition of cell growth (%) ([7]; single dose 2.5 μm): 5 ± 2%
- Inhibition of cell growth (%) ([7]; single dose 5 μm): 8.6 ± 3%
- Inhibition of cell growth (%) ([7]; single dose 10 μm): 21 ± 4%
- Inhibition of cell growth (%) ([7]; single dose 20 μm): 45.1 ± 2.9%
- Inhibition of cell growth (%) ([7]; single dose 40 μm): 82.7 ± 2.3%
- Inhibition of cell growth (%) ([8]; single dose 2.5 μm): 5.2 ± 2%
- Inhibition of cell growth (%) ([8]; single dose 5 μm): 12 ± 3%
- Inhibition of cell growth (%) ([8]; single dose 10 μm): 30.2 ± 2.9%
- Inhibition of cell growth (%) ([8]; single dose 20 μm): 62 ± 3.2%
- Inhibition of cell growth (%) ([8]; single dose 40 μm): 85.22 ± 2%
- Inhibition of cell growth (%) ([9]; single dose 2.5 μm): 17 ± 2%
- Inhibition of cell growth (%) ([9]; single dose 5 μm): 20 ± 3.2%
- Inhibition of cell growth (%) ([9]; single dose 10 μm): 27 ± 3%
- Inhibition of cell growth (%) ([9]; single dose 20 μm): 33.75 ± 3%
- Inhibition of cell growth (%) ([9]; single dose 40 μm): 90 ± 2%
- Number of mice Surviving through 15 days/total number (L1210 cells; BG 25 mg/kg i.p.): 10/10
- Number of mice Surviving through 15 days/total number (L1210 cells; BG 50 mg/kg i.p.): 10/10
- Number of mice Surviving through 15 days/total number (L1210 cells; BG 100 mg/kg i.p.): 10/10
- Number of mice Surviving through 15 days/total number (L1210 cells; BG 200 mg/kg i.p.): 10/10
- ILS(%) increase of life span (L1210 cells; BG 25 mg/kg i.p.): 17.3%
- ILS(%) increase of life span (L1210 cells; BG 50 mg/kg i.p.): 27.55%
- ILS(%) increase of life span (L1210 cells; BG 100 mg/kg i.p.): 38.27%
- ILS(%) increase of life span (L1210 cells; BG 200 mg/kg i.p.): 50%
